Columns and labels:
[1] = target: T1, recombinant human cannabinoid receptor CB1 (Homo sapiens, UniProt P21554); test: Cannabinoid receptor radioligand binding assay, [3H]-CP 55,940 displacement, hCB1
T1 construct: (cDNA clone) CNR01L000
Procedure, shortened: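 Membranes from HEK-293 cells stably expressing human CB1, 2-10 μg protein, incubated 90 min at room temperature with 0.5 nM [3H]-CP 55,940 in Tris-HCl pH 7.5, MgCl2, EDTA and 0.1% fatty-acid-free BSA. Bound radioactivity counted after rapid filtration; nonspecific binding defined with 1 μM unlabeled CP 55,940.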

human CB2 (hCB2) = target: T2, human CB2 (hCB2) (Homo sapiens, UniProt P34972); test: 35S GTPγS binding assay, hCB2 agonist; assay type: biochemical; settings: GTPγS agonist, HEK-293 membranes; read-out: hCB2 EC50 (GTPyS ag)
T2 construct: (cDNA clone) CNR0200000
Procedure, shortened: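 Membranes (5 μg) from cells transfected with hCB2 cDNA in pcDNA3.1+ incubated with SPA beads, 0.1 nM [35S]GTPγS and 20 uM GDP in 50 mM HEPES pH 7.4, 100 mM NaCl, 5 mM MgCl2, 0.001% saponin, ± test compound. Incubation 90 min at room temperature; bound label read by scintillation counting.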

T2 sequence (P34972 whole entry): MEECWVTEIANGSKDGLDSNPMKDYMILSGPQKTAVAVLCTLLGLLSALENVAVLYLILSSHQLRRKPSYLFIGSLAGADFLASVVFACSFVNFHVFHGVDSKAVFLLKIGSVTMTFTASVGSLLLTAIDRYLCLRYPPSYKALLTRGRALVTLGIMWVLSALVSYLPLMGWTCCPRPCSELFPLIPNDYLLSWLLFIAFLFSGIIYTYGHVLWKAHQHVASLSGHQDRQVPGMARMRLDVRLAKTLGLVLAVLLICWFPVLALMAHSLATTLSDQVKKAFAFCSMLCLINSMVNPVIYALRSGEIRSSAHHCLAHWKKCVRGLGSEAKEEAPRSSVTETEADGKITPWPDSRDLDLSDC
T1 sequence (P21554 whole entry): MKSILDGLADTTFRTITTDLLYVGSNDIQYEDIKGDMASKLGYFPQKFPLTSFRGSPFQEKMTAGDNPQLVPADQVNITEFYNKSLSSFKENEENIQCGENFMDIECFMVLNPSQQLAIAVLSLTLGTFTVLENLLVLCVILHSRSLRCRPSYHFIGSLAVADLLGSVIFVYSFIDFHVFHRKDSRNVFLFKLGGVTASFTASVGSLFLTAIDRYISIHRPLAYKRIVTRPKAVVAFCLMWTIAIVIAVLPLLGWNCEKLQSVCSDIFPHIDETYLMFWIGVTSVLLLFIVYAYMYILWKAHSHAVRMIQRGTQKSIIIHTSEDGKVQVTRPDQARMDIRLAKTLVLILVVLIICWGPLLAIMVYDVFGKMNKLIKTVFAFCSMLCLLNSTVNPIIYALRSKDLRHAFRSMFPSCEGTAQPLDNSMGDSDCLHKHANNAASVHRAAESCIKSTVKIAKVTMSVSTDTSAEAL

Cc1cc2cc(C(=O)c3cccc(Cl)c3)sc2n1CCN1CCOCC1 [Compound 4, (3-Chlorophenyl)(5-methyl-6-(2-morpholinoethyl)-6H-thieno[2,3-b]pyrrol-2-yl)methanone]
IC50 [1]: 1000 to 10000 nM | EC50 (human CB2 (hCB2)): < 100 nM

Cc1cc2cc(C(=O)c3ccccc3)sc2n1CCN1CCOCC1 [Compound 7, (5-Methyl-6-(2-morpholinoethyl)-6H-thieno[2,3-b]pyrrol-2-yl)(phenyl)methanone]
IC50 [1]: 1000 to 10000 nM | EC50 (human CB2 (hCB2)): 100 to 1000 nM

Cc1cc2cc(C(=O)c3ccc(Cl)cc3Cl)sc2n1CCN1CCOCC1 [Compound 10, (2,4-Dichlorophenyl)(5-methyl-6-(2-morpholinoethyl)-6H-thieno[2,3-b]pyrrol-2-yl)methanone]
IC50 [1]: 100 to 1000 nM | EC50 (human CB2 (hCB2)): < 100 nM

Cc1ccccc1C(=O)c1cc2cc(C)n(CCN3CCOCC3)c2s1 [Compound 12, (5-Methyl-6-(2-morpholinoethyl)-6H-thieno[2,3-b]pyrrol-2-yl)(o-tolyl)methanone]
IC50 [1]: 1000 to 10000 nM | EC50 (human CB2 (hCB2)): < 100 nM

CCn1c(C)cc2cc(C(=O)c3cccc(Cl)c3Cl)sc21 [Compound 19, (2,3-Dichlorophenyl)(6-ethyl-5-methyl-6H-thieno[2,3-b]pyrrol-2-yl)methanone]
IC50 [1]: > 10000 nM | EC50 (human CB2 (hCB2)): 100 to 1000 nM

CCS(=O)(=O)n1c(C)cc2cc(C(=O)c3cccc(Cl)c3Cl)sc21 [Compound 25, (2,3-Dichlorophenyl)(6-(ethylsulfonyl)-5-methyl-6H-thieno[2,3-b]pyrrol-2-yl)methanone]
IC50 [1]: 1000 to 10000 nM | EC50 (human CB2 (hCB2)): < 100 nM

COc1cccc(C(=O)c2cc3cc(C)n(CCN4CCOCC4)c3s2)c1 [Compound 26, (3-Methoxyphenyl)(5-methyl-6-(2-morpholinoethyl)-6H-thieno[2,3-b]pyrrol-2-yl)methanone]
IC50 [1]: 100 to 1000 nM | EC50 (human CB2 (hCB2)): < 100 nM

Cc1cc2cc(C(=O)c3cccc(Cl)c3Cl)sc2n1CC1CCOCC1 [Compound 31, (2,3-Dichlorophenyl)(5-methyl-6-((tetrahydro-2H-pyran-4-yl)methyl)-6H-thieno[2,3-b]pyrrol-2-yl)methanone]
IC50 [1]: 100 to 1000 nM | EC50 (human CB2 (hCB2)): < 100 nM

Cc1cc2cc(Cc3cccc(Cl)c3Cl)sc2n1CCN1CCOCC1 [Compound 32, 4-(2-(2-(2,3-Dichlorobenzyl)-5-methyl-6H-thieno[2,3-b]pyrrol-6-yl)ethyl)morpholine]
IC50 [1]: 1000 to 10000 nM | EC50 (human CB2 (hCB2)): < 100 nM

Cc1cc2cc(C(=O)c3cccc(Cl)c3Cl)sc2n1CCCNS(C)(=O)=O [Compound 37, N-(3-(2-(2,3-Dichlorobenzoyl)-5-methyl-6H-thieno[2,3-b]pyrrol-6-yl)propyl)methanesulfonamide]
IC50 [1]: > 10000 nM | EC50 (human CB2 (hCB2)): < 100 nM

Cc1cc2cc(C(=O)c3cccc(Cl)c3Cl)sc2n1S(=O)(=O)C(C)C [Compound 38, (2,3-Dichlorophenyl)(6-(isopropylsulfonyl)-5-methyl-6H-thieno[2,3-b]pyrrol-2-yl)methanone]
IC50 [1]: 1000 to 10000 nM | EC50 (human CB2 (hCB2)): < 100 nM

CCS(=O)(=O)n1c(C)cc2cc(C(=O)c3ccccc3Cl)sc21 [Compound 42, (2-Chlorophenyl)(6-(ethylsulfonyl)-5-methyl-6H-thieno[2,3-b]pyrrol-2-yl)methanone]
IC50 [1]: 1000 to 10000 nM | EC50 (human CB2 (hCB2)): < 100 nM

CCS(=O)(=O)n1c(C)cc2cc(C(=O)c3cccnc3Cl)sc21 [Compound 43, (2-Chloropyridin-3-yl)(6-(ethylsulfonyl)-5-methyl-6H-thieno[2,3-b]pyrrol-2-yl)methanone]
IC50 [1]: > 10000 nM | EC50 (human CB2 (hCB2)): < 100 nM

COc1ccc(C(=O)c2cc3cc(C)n(CCCNS(C)(=O)=O)c3s2)cc1 [Compound 44, N-(3-(2-(4-methoxybenzoyl)-5-methyl-6H-thieno[2,3-b]pyrrol-6-yl)propyl)methanesulfonamide]
IC50 [1]: 1000 to 10000 nM | EC50 (human CB2 (hCB2)): < 100 nM

COc1ncccc1C(=O)c1cc2cc(C)n(CCN3CCOCC3)c2s1 [Compound 47, (2-Methoxypyridin-3-yl)(5-methyl-6-(2-morpholinoethyl)-6H-thieno[2,3-b]pyrrol-2-yl)methanone]
IC50 [1]: > 10000 nM | EC50 (human CB2 (hCB2)): 100 to 1000 nM

COc1ccc(C(=O)c2cc3cc(C)n(S(=O)(=O)N(C)C)c3s2)cc1 [Compound 51, 2-(4-Methoxybenzoyl)-N,N,5-trimethyl-6H-thieno[2,3-b]pyrrole-6-sulfonamide]
IC50 [1]: 1000 to 10000 nM | EC50 (human CB2 (hCB2)): < 100 nM

Cc1cc2cc(C(=O)c3ccc(F)cc3)sc2n1CCN1CCOCC1 [Compound 54, (4-Fluorophenyl)(5-methyl-6-(2-morpholinoethyl)-6H-thieno[2,3-b]pyrrol-2-yl)methanone]
IC50 [1]: 1000 to 10000 nM | EC50 (human CB2 (hCB2)): < 100 nM

CCS(=O)(=O)n1c(C)cc2cc(C(=O)c3ccc(OC)cc3)sc21 [Compound 56, (6-(Ethylsulfonyl)-5-methyl-6H-thieno[2,3-b]pyrrol-2-yl)(4-methoxyphenyl)methanone]
IC50 [1]: > 10000 nM | EC50 (human CB2 (hCB2)): < 100 nM

COc1ccc(C(=O)c2cc3cc(C)n(CCN4CCOCC4)c3s2)cn1 [Compound 58, (6-Methoxypyridin-3-yl)(5-methyl-6-(2-morpholinoethyl)-6H-thieno[2,3-b]pyrrol-2-yl)methanone]
IC50 [1]: > 10000 nM | EC50 (human CB2 (hCB2)): < 100 nM

Cc1cc2cc(C(=O)c3ccc(C(F)(F)F)cc3)sc2n1CCN1CCOCC1 [Compound 60, (5-Methyl-6-(2-morpholinoethyl)-6H-thieno[2,3-b]pyrrol-2-yl)(4-(trifluoromethyl)phenyl)methanone]
IC50 [1]: > 10000 nM | EC50 (human CB2 (hCB2)): 1000 to 10000 nM

COc1ccc(C(=O)c2cc3cc(C)n(CCN4CCOCC4)c3s2)c(Cl)c1 [Compound 70, (2-Chloro-4-methoxyphenyl)(5-methyl-6-(2-morpholinoethyl)-6H-thieno[2,3-b]pyrrol-2-yl)methanone]
IC50 [1]: 100 to 1000 nM | EC50 (human CB2 (hCB2)): < 100 nM

COc1ccc(C(=O)c2cc3cc(C)n(Cc4ccccc4)c3s2)cc1 [Compound 84, (6-Benzyl-5-methyl-6H-thieno[2,3-b]pyrrol-2-yl)(4-methoxyphenyl)methanone]
IC50 [1]: 1000 to 10000 nM | EC50 (human CB2 (hCB2)): 100 to 1000 nM

COc1ccc(C(=O)c2cc3cc(C)n(CCCCl)c3s2)c(Cl)c1 [Compound 85, (2-Chloro-4-methoxyphenyl)(6-(3-chloropropyl)-5-methyl-6H-thieno[2,3-b]pyrrol-2-yl)methanone]
IC50 [1]: 1000 to 10000 nM | EC50 (human CB2 (hCB2)): < 100 nM

COc1ccc(C(=O)c2cc3cc(C)n(CCCNS(C)(=O)=O)c3s2)c(F)c1 [Compound 87, N-(3-(2-(2-Fluoro-4-methoxybenzoyl)-5-methyl-6H-thieno[2,3-b]pyrrol-6-yl)propyl)methanesulfonamide]
IC50 [1]: > 10000 nM | EC50 (human CB2 (hCB2)): < 100 nM

COc1ccc(C(=O)c2cc3cc(C)n(CCCNS(C)(=O)=O)c3s2)c(Cl)c1 [Compound 91, N-(3-(2-(2-Chloro-4-methoxybenzoyl)-5-methyl-6H-thieno[2,3-b]pyrrol-6-yl)propyl)methanesulfonamide]
IC50 [1]: > 10000 nM | EC50 (human CB2 (hCB2)): < 100 nM

Cc1ccc(C(=N)c2cc3cc(C)n(CCN4CCOCC4)c3s2)cc1 [Compound 121, (5-methyl-6-(2-morpholinoethyl)-6H-thieno[2,3-b]pyrrol-2-yl)(p-tolyl)methanimine]
IC50 [1]: 1000 to 10000 nM | EC50 (human CB2 (hCB2)): < 100 nM

COc1ccc(C(=O)c2cc3cc(C)n(CCN4CCOCC4)c3s2)cc1F [Compound 128, (3-fluoro-4-methoxyphenyl)(5-methyl-6-(2-morpholinoethyl)-6H-thieno[2,3-b]pyrrol-2-yl)methanone]
IC50 [1]: 1000 to 10000 nM | EC50 (human CB2 (hCB2)): < 100 nM

Cc1cc2cc(C(=O)c3ccc(C#N)cc3)sc2n1CCN1CCOCC1 [Compound 129, 4-(5-methyl-6-(2-morpholinoethyl)-6H-thieno[2,3-b]pyrrole-2-carbonyl)benzonitrile]
IC50 [1]: 1000 to 10000 nM | EC50 (human CB2 (hCB2)): < 100 nM

COc1cc(F)ccc1C(=O)c1cc2cc(C)n(CCN3CCOCC3)c2s1 [Compound 133, (4-fluoro-2-methoxyphenyl)(5-methyl-6-(2-morpholinoethyl)-6H-thieno[2,3-b]pyrrol-2-yl)methanone]
IC50 [1]: 100 to 1000 nM | EC50 (human CB2 (hCB2)): < 100 nM

Cc1cc2cc(C(=O)c3ccc(F)cc3F)sc2n1CCN1CCOCC1 [Compound 135, (2,4-difluorophenyl)(5-methyl-6-(2-morpholinoethyl)-6H-thieno[2,3-b]pyrrol-2-yl)methanone]
IC50 [1]: 1000 to 10000 nM | EC50 (human CB2 (hCB2)): 100 to 1000 nM

COc1ccc(C(=O)c2cc3cc(C)n(CCN4CCOCC4)c3s2)c(C)n1 [Compound 136, (6-methoxy-2-methylpyridin-3-yl)(5-methyl-6-(2-morpholinoethyl)-6H-thieno[2,3-b]pyrrol-2-yl)methanone]
IC50 [1]: 1000 to 10000 nM | EC50 (human CB2 (hCB2)): < 100 nM

COc1ccc(C(O)(c2cc3cc(C)n(CCN4CCOCC4)c3s2)C(F)(F)F)cc1 (centres unmarked) [Compound 138, 2,2,2-trifluoro-1-(4-methoxyphenyl)-1-(5-methyl-6-(2-morpholinoethyl)-6H-thieno[2,3-b]pyrrol-2-yl)ethanol]
IC50 [1]: 1000 to 10000 nM | EC50 (human CB2 (hCB2)): < 100 nM

COc1ccc(C(c2cc3cc(C)n(CCN4CCOCC4)c3s2)C(F)(F)F)cc1 (centres unmarked) [Compound 141, 4-(2-(5-methyl-2-(2,2,2-trifluoro-1-(4-methoxyphenyl)ethyl)-6H-thieno[2,3-b]pyrrol-6-yl)ethyl)morpholine]
IC50 [1]: 1000 to 10000 nM | EC50 (human CB2 (hCB2)): 100 to 1000 nM

COc1ccc(C(=O)c2cc3cc(C)n(CCN4CCC(OC)C4)c3s2)cn1 (centres unmarked) [Compound 147, (6-methoxypyridin-3-yl)(6-(2-(3-methoxypyrrolidin-1-yl)ethyl)-5-methyl-6H-thieno[2,3-b]pyrrol-2-yl)methanone]
IC50 [1]: > 10000 nM | EC50 (human CB2 (hCB2)): 100 to 1000 nM

From patent US20130029970A1 (priority 2009, published 2013)
